The target of one test is GSK-3 (Homo sapiens, UniProt P49841). The note with it: Licht-Murava et al. 2011; cited from earlier work.
Test [1] addresses T1, GSK-3β (WT) (Homo sapiens, UniProt P49841).
T1 construct: made in house
Nature of the test: In vitro kinase assay: phosphorylation of the peptide as a substrate by GSK-3β (WT), 32P-γ-ATP. It counts as biochemical. The note with it: WT GSK-3β, FIG. 3 and FIG. 5. As for the experimental part: (§1) GSK-3β (WT) was incubated with pIRS-1, RREGGMSRPAS(p)VDG (SEQ ID NO:55), as an exemplary substrate, in a reaction mixture (50 mM Tris-HCl, pH 7.3, 10 mM magnesium acetate, and 0.01% β-mercaptoethanol) together with 100 μM 32P[γ-ATP] (0.5 μCi/assay) for 15 minutes. Reactions were stopped by spotting on p81 paper (Whatman), washed with phosphoric acid, and counted for radioactivity as previously described [Ilouz et al. (2006) supra].
(§2) In assays conducted with GSK-3 mutant, the GSK-3β proteins (WT or mutant) were incubated with the indicated substrate in a reaction mixture (50 mM Tris-HCl, pH 7.3, 10 mM magnesium acetate, and 0.01% β-mercaptoethanol) together with 100 μM ^32P[γ-ATP] (0.5 μCi/assay) for 15 minutes. Reactions were stopped by spotting on p81 paper (Whatman) washed with phosphoric acid, and counted for radioactivity as previously described [Ilouz et al. (2006) supra]. In assays from cells overexpressing GSK-3 proteins, GSK-3 proteins were partially purified by DE-52 minicolumn and subjected to in vitro kinase assays as described. The activity of the endogenous GSK-3 that was determined in cells transfected with the pCMV4 vector was subtracted from the activity values obtained for WT and mutants.
Thus, in vitro kinase assays as described hereinabove were performed in the presence of pIRS-1 substrate or L807 and phosphorylation was determined. […]

For test [2], the target named is T2, GSK-3β F93A mutant (Homo sapiens, UniProt P49841, F93A).
T2 construct: made in house, partially purified on a DE-52 minicolumn
Nature of the test: In vitro kinase assay: phosphorylation of the peptide as a substrate by the GSK-3β F93A mutant. Type of test: biochemical. The note with it: FIG. 5. As for the experimental part:
(§3) GSK-3β F93A mutant (in which Phe93 was replaced by alanine) was prepared as described in WO 2012/101599.
as §2
Thus, L807 and the substrate pHSF-1 were both tested in in vitro kinase assays as described hereinabove, for the ability of GSK-3β (WT) and its F93A mutant to phosphorylate these peptides.

Test [3] deals with T2, GSK-3β F93A mutant. Nature of the test: In vitro kinase assay: inhibition of the GSK-3β F93A mutant, pIRS-1 as substrate. To be noted: FIG. 6. It counts as biochemical. As for the experimental part: as §3, §2
In vitro kinase assays conducted for evaluating the inhibition activity of L807 and pL807 of the F93A mutant were also conducted, using pIRS-1 as a substrate.

The subject of a further test is Aβ loads. Nature of the test: Congo red staining of Aβ loads in brain sections of 5XFAD mice. Type of test: in vivo, mouse. The note with it: intranasal 60 μg/dose for 120 days, FIG. 8B. As for the experimental part: 5XFAD mice were purchased from Jackson laboratory and maintained at an animal house. The 5XFAD mice were randomly assigned to two groups (6 animals each). Treatment started at the age of 2 months, by administering, intranassally, L807-mts (60 μg) (5 μl solution in each nostril) every other day for 120 days. Saline-perfused brains of the tested mice were rapidly excised and frozen in N2. Brains were divided into the two hemispheres: the left hemisphere was taken for immunohistology and the right hemisphere for immunoblot analysis. Coronal brains sections (14 μm) were cut by cryostat at -20° C. Slices at Bregma -1.58 mm were fixed (using 4% PFA) and stained with Congo red dye (Sigma-Aldrich) or with an antigen-retrieval method with anti-Aβ 6E10 antibody (SIG-39300) and visualized by fluorescence microscopy. Quantification of Aβ depositions was done for the whole hippocampus area in a blinded fashion using Imaging Research software from the NIH in an unbiased stereological approach. Mice were scarified and coronal brain sections were stained with congo red dye and Aβ loads were visualized by fluorescence microscopy.

Another test concerns 5XFAD mice. Kind of test: Contextual fear conditioning test in 5XFAD mice. Type of test: in vivo, mouse. To be noted: intranasal, 60 μg/dose every other day for 120 days, FIG. 8A. As for the experimental part: 5XFAD mice were purchased from Jackson laboratory and maintained at an animal house. The 5XFAD mice were randomly assigned to two groups (6 animals each). Treatment started at the age of 2 months, by administering, intranassally, L807-mts (60 μg) (5 μl solution in each nostril) every other day for 120 days.
A contextual fear conditioning test (FCT) was thereafter conducted as described in Saura et al. (2005) J. Neurosci. 25(29), 6755-6764. Briefly, mice were subjected to an unconditioned electric stimulus (US footshock; 1 s/1 mA) in a training pre-session. Twenty-four hours later, FCT was measured by scoring freezing behavior (the absence of all but respiratory movement) for 180 seconds using a FreezeFrame automated scoring system (Coulbourn Instruments). All experiments were in compliance with protocols approved by the TAU animal care committee.
Mice (two-month old) were treated intranasally with L807-mts (60 μg/dose) for 120 days. At the end of the experiment mice were subjected to the contextual fear conditioning test (FCT), a behavioral test widely used to evaluate associative learning and memory (see, Saura et al. (2005) supra).

For test [4], the target named is T1, GSK-3β (WT). Nature of the test: In vitro kinase assay: inhibition of GSK-3β (WT), pIRS-1 as substrate. Type of test: biochemical. The note with it: FIG. 4. As for the experimental part: Bacterially expressed Purified GSK-3β Wild-Type (WT) was prepared as previously described (Eldar-Finkelman 1996 PNAS).
as §1
The ability of the novel peptides described in Example 1 to inhibit GSK-3β was determined by in vitro kinase assays as described hereinabove. The results are presented in FIGS. 2A-B. Substrate phosphorylation obtained in reaction with no inhibitor was defined as 100% (Con), and the results presented are means of two independent experiments each performed in duplicate±SEM.

The target in test [5] is T2, GSK-3β F93A mutant. The note with it: Licht-Murava et al. 2011; cited from earlier work.

“Also recorded” adds a separate entry of the source. Square brackets hold non-standard residues; d marks the D form. Ends that are not written are not given here. Peptide text beside a SMILES is read from it. * marks the point of attachment. Myristoyl = CCCCCCCCCCCCCC(=O)*; pS = N[C@@H](COP(=O)(O)O)C(=O)O

T2 sequence (P49841 whole entry F93A): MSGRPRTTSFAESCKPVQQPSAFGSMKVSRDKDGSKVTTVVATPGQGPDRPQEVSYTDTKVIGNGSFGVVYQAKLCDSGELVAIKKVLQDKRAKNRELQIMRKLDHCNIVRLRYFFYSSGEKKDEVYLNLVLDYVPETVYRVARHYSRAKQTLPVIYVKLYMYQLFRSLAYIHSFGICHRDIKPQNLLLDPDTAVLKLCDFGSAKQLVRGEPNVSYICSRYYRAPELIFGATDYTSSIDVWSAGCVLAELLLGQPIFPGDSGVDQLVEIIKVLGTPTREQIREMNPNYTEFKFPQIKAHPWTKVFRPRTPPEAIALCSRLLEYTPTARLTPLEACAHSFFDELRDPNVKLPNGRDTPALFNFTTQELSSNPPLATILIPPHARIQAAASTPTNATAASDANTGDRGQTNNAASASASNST
T1 sequence (P49841 whole entry): as the sequence (P49841 whole entry F93A) above, with A93F counted along it
Sequence of GSK-3 (P49841 whole entry): as the sequence (P49841 whole entry F93A) above, with A93F counted along it

Regarding `C[C@H](NC(=O)[C@H](CCC(=O)O)NC(=O)[C@@H](N)CCCCN)C(=O)N1CCC[C@H]1C(=O)N1CCC[C@H]1C(=O)N[C@@H](C)C(=O)N1CCC[C@H]1C(=O)N1CCC[C@H]1C(=O)N[C@@H](CCC(N)=O)C(=O)N[C@@H](COP(=O)(O)O)C(=O)N1CCC[C@H]1C(=O)O` [L803, KEAPPAPPQS(p)P] (H-KEAPPAPPQ[pS]P-OH; N-terminus and C-terminus assumed), at GSK-3, the “Interaction with F93 of GSK-3, binding mode as previously reported” value is on record as “contacts GSK-3 residue F93”.
In the case of `C[C@H](NC(=O)[C@H](CCC(=O)O)NC(=O)[C@@H](N)CCCCN)C(=O)N1CCC[C@H]1C(=O)N1CCC[C@H]1C(=O)N[C@@H](CO)C(=O)N1CCC[C@H]1C(=O)N1CCC[C@H]1C(=O)N[C@@H](CCC(N)=O)C(=O)N[C@@H](COP(=O)(O)O)C(=O)N1CCC[C@H]1C(=O)O` [L807, KEAPPSPPQS(p)P] (H-KEAPPSPPQ[pS]P-OH; N-terminus and C-terminus assumed), the “Peptide phosphorylation by GSK-3β (substrate or not)” value on GSK-3β (WT) [1] is given as “is a substrate of GSK-3; also recorded: phosphorylated”. The “Peptide phosphorylation by F93A mutant” value at GSK-3β F93A mutant [2] is listed as “phosphorylated”. In addition, on GSK-3β F93A mutant [3], the “Inhibition of the F93A mutant” value was “no inhibition”.
For `CCCCCCCCCCCCCC(=O)NCC(=O)N[C@@H](CCCCN)C(=O)N[C@@H](CCC(=O)O)C(=O)N[C@@H](C)C(=O)N1CCC[C@H]1C(=O)N1CCC[C@H]1C(=O)N[C@@H](CO)C(=O)N1CCC[C@H]1C(=O)N1CCC[C@H]1C(=O)N[C@@H](CCC(N)=O)C(=O)N[C@@H](COP(=O)(O)O)C(=O)N1CCC[C@H]1C(=O)O` [L807-mts, myristic acid-GKEAPPSPPQS(p)P] (Myristoyl-GKEAPPSPPQ[pS]P-OH; C-terminus assumed), the “Amount and mean sizes of Aβ loads” value in the test on Aβ loads is reported as “largely reduced”. Besides, the “Freezing behavior, performance relative to wild-type (WT) mice” value in the test with 5XFAD mice is given as “up to 81%±14%”.
On to “KEAPPS(p)PPQS(p)P (KEAPP[pS]PPQ[pS]P) [pL807, double phosphorylated L807]”, for which the “Inhibition of GSK-3” value with GSK-3β (WT) [4] is listed as “does not inhibit GSK-3”. For the same molecule, the “Peptide phosphorylation by GSK-3β (substrate or not)” value with GSK-3β (WT) [1] is listed as “is not a substrate of GSK-3”.
With “RREGGMSRPAS(p)VDG (RREGGMSRPA[pS]VDG) [pIRS-1, GSK-3 substrate peptide from the insulin receptor substrate-1]”, the “Peptide phosphorylation by F93A mutant (literature)” value in the test with GSK-3β F93A mutant [5] is recorded as “not phosphorylated”.

The values are drawn from US9718859B2, “Glycogen synthase kinase-3 inhibitors” (Ramot at Tel-Aviv University Ltd., priority 2013, dated 2017).
